Test results as given in patent US9890142B2, “PDE4 inhibitor” (Meiji Seika Pharma Co., Ltd., priority 2013, dated 2018).

Tested on: PDE4
Experiment: Evaluation of PDE4 inhibition (scintillation proximity assay)
Type: biochemical
Conditions: inhibition rate relative to control, test compound at 1 μM
Method: Test Example 1 Evaluation of PDE4 Inhibition
The PDE4 inhibitory activity was measured by using scintillation proximity assay (SPA) as follows: one in which a sample compound dissolved in dimethyl sulfoxide was diluted 10-fold with a buffer solution for reaction containing 50 mM Tris-HCl, pH 7.5, 8.3 mM MgCl2, 1.7 mM EDTA and 0.3 mg/mL bovine serum albumin (BSA) was added at 10 μL/well to a 96-well assay plate. Further, PDE4 diluted 750-fold with a buffer solution for reaction was added at 50 μL/well, then [2,8-^3H]-Adenosine-3′,5′-cyclic phosphate triethylammonium salt diluted 1000-fold with a buffer solution for reaction was added at 40 μL/well, and the plate was left standing at room temperature for 120 minutes. Thereafter, a suspension of RNA binding YSi-SPA Beads containing 200 mM ZnSO4 was added at 50 μL/well, and the plate was left standing at room temperature for 15 minutes to adsorb the enzyme reaction product onto the Beads. Thereafter, the radioactivity was measured with a liquid scintillation counter for 96-well plates. When one supplemented with only a buffer solution for reaction without adding the enzyme preparation was used as a blank and one supplemented with the enzyme preparation but supplemented with only dimethyl sulfoxide instead of the sample solution was used as a control, the inhibition rate of the test compound relative to the control was calculated according to the following calculation expression: Inhibition rate (%)={1−(Numeric value from the addition of each sample−Blank value)/(Control value−Blank value)}×100

Compound	PDE4 inhibitory activity (1 μM (%)) [%]
C[C@H]1CNCCN1c1nc2cc(Cl)cc(-c3ncco3)c2o1 [Example 34, (S)-5-Chloro-2-(2-methylpiperazin-1-yl)-7-(oxazol-2-yl)benzoxazole]	89
C[C@H]1CNCCN1c1nc2cc(Cl)cc(-c3nccs3)c2o1 [Example 35, (S)-5-Chloro-2-(2-methylpiperazin-1-yl)-7-(thiazol-2-yl)benzoxazole]	96
C[C@H]1CNCCN1c1nc2cc(Cl)cc(-n3ccnc3)c2o1 [Example 36, (S)-5-Chloro-7-(1H-imidazol-1-yl)-2-(2-methylpiperazin-1-yl)benzoxazole]	39
C[C@H]1CNCCN1c1nc2cc(Cl)cc(-c3cscn3)c2o1 [Example 37, (S)-5-Chloro-2-(2-methylpiperazin-1-yl)-7-(thiazol-4-yl)benzoxazole]	98
C[C@H]1CNCCN1c1nc2cc(Cl)cc(-c3cncs3)c2o1 [Example 38, (S)-5-Chloro-2-(2-methylpiperazin-1-yl)-7-(thiazol-5-yl)benzoxazole]	68
Cc1ccc(-c2cc(Cl)cc3nc(N4CCNC[C@@H]4C)oc23)o1 [Example 39, (S)-5-Chloro-7-(5-methylfuran-2-yl)-2-(2-methylpiperazin-1-yl)benzoxazole]	42
Cc1cnn(-c2cc(Cl)cc3nc(N4CCNC[C@@H]4C)oc23)c1 [Example 40, (S)-5-Chloro-7-(4-methyl-1H-pyrazol-1-yl)-2-(2-methylpiperazin-1-yl)benzoxazole]	68
C[C@H]1CNCCN1c1nc2cc(Cl)cc(-c3ccccn3)c2o1 [Example 41, (S)-5-Chloro-2-(2-methylpiperazin-1-yl)-7-(pyridin-2-yl)benzoxazole]	93
C[C@H]1CNCCN1c1nc2cc(Cl)cc(-c3cccnc3)c2o1 [Example 42, (S)-5-Chloro-2-(2-methylpiperazin-1-yl)-7-(pyridin-3-yl)benzoxazole]	66
C[C@H]1CNCCN1c1nc2cc(Cl)cc(-c3ccncc3)c2o1 [Example 43, (S)-5-Chloro-2-(2-methylpiperazin-1-yl)-7-(pyridin-4-yl)benzoxazole]	61
C[C@H]1CNCCN1c1nc2cc(Cl)cc(C3CCCCC3)c2o1 [Example 44, (S)-5-Chloro-7-cyclohexyl-2-(2-methylpiperazin-1-yl)benzoxazole]	64
C[C@H]1CNCCN1c1nc2cc(Cl)cc(-n3nccn3)c2o1 [Example 45, (S)-5-Chloro-2-(2-methylpiperazin-1-yl)-7-(2H-1,2,3-triazol-2-yl)benzoxazole]	87
C[C@H]1CNCCN1c1nc2cc(Cl)cc(-n3cncn3)c2o1 [Example 46, (S)-5-Chloro-2-(2-methylpiperazin-1-yl)-7-(1H-1,2,4-triazol-1-yl)benzoxazole]	29
CC(C)Cc1cc(Cl)cc2nc(N3CCNC[C@@H]3C)oc12 [Example 47, (S)-5-Chloro-7-isobutyl-2-(2-methylpiperazin-1-yl)benzoxazole]	35
C[C@H]1CNCCN1c1nc2cc(Cl)cc(-c3ccccc3CO)c2o1 [Example 48, (S)-5-Chloro-2-(2-methylpiperazin-1-yl)-7-(2-hydroxymethylphenyl)benzoxazole]	53
C[C@H]1CNCCN1c1nc2cc(Cl)cc(-c3nccn3C)c2o1 [Example 49, (S)-5-Chloro-7-(1-methyl-1H-imidazol-2-yl)-2-(2-methylpiperazin-1-yl)-benzoxazole]	17

Compound	PDE4 inhibitory activity (1 μM (%)) [%]
C[C@H]1CNCCN1c1nc2cc(Cl)cc(-c3ncc[nH]3)c2o1 [Example 50, (S)-5-Chloro-7-(1H-imidazol-2-yl)-2-(2-methylpiperazin-1-yl)benzoxazole]	62
C[C@H]1CNCCN1c1nc2cc(Cl)cc(CC3CCCCC3)c2o1 [Example 51, (S)-5-Chloro-7-(cyclohexylmethyl)-2-(2-methylpiperazin-1-yl)-benzoxazole]	12
C[C@H]1CNCCN1c1nc2cc(Cl)cc(OC3CCCCC3)c2o1 [Example 52, (S)-5-Chloro-7-(cyclohexyloxy)-2-(2-methylpiperazin-1-yl)benzoxazole]	57
C[C@H]1CNCCN1c1nc2cc(Cl)cc(OCC3CC3)c2o1 [Example 53, (S)-5-Chloro-7-(cyclopropylmethoxy)-2-(2-methylpiperazin-1-yl)benzoxazole]	50
C[C@H]1CNCCN1c1nc2cc(Cl)cc(-c3ccsn3)c2o1 [Example 54, (S)-5-Chloro-7-(isothiazole-3-yl)-2-(2-methylpiperazin-1-yl)benzoxazole]	92
C[C@H]1CNCCN1c1nc2cc(Cl)cc(-c3ncc(CO)s3)c2o1 [Example 55, (S)-5-Chloro-7-(5-hydroxymethylthiazol-2-yl)-2-(2-methylpiperazin-1-yl)benzoxazole]	80
C[C@H]1CNCCN1c1nc2cc(Cl)cc(-c3ncccn3)c2o1 [Example 56, (S)-5-Chloro-2-(2-methylpiperazin-1-yl)-7-(pyrimidin-2-yl)benzoxazole]	87
C[C@H]1CNCCN1c1nc2cc(Cl)cc(-c3ccc(Cl)s3)c2o1 [Example 57, (S)-5-Chloro-7-(5-chlorothiophen-2-yl)-2-(2-methylpiperazin-1-yl)benzoxazole]	54
C[C@H]1CNCCN1c1nc2cc(Cl)cc(-c3ccc(Cl)cn3)c2o1 [Example 58, (S)-5-Chloro-7-(5-chloropyridin-2-yl)-2-(2-methylpiperazin-1-yl)benzoxazole]	77
C[C@H]1CNCCN1c1nc2cc(Cl)cc(-c3cc(Cl)ccn3)c2o1 [Example 59, (S)-5-Chloro-7-(4-chloropyridin-2-yl)-2-(2-methylpiperazin-1-yl)benzoxazole]	71
C[C@H]1CNCCN1c1nc2cc(Cl)cc(-c3cccc(F)n3)c2o1 [Example 60, (S)-5-Chloro-7-(6-fluoropyridin-2-yl)-2-(2-methylpiperazin-1-yl)benzoxazole]	63
C[C@H]1CNCCN1c1nc2cc(Cl)cc(-c3ncccc3F)c2o1 [Example 61, (S)-5-Chloro-7-(3-fluoropyridin-2-yl)-2-(2-methylpiperazin-1-yl)benzoxazole]	81
C[C@H]1CNCCN1c1nc2cc(Cl)cc(-c3ncc(C#N)s3)c2o1 [Example 62, (S)-5-Chloro-7-(5-cyanothiazol-2-yl)-2-(2-methylpiperazin-1-yl)benzoxazole]	65
Cc1cnc(-c2cc(Cl)cc3nc(N4CCNC[C@@H]4C)oc23)s1 [Example 63, (S)-5-Chloro-2-(2-methylpiperazin-1-yl)-7-(5-methylthiazol-2-yl)benzoxazole]	87
C[C@H]1CNCCN1c1nc2cc(Cl)cc(-c3ccsc3Cl)c2o1 [Example 64, (S)-5-Chloro-7-(2-chlorothiophen-3-yl)-2-(2-methylpiperazin-1-yl)benzoxazole]	73
